# From patent publication US5173490A, “Benzisoxazole and benzisothiazole compounds” (Adir et Compagnie, priority 1991, dated 1992)
# Test system: stereotypies (bruxism) induced by methyl phenidate
# Test: Test of the stereotypies induced by methyl phenidate in rats (inhibition of bruxism)
# Type: in vivo, male Wistar rats
# Conditions: Rattus norvegicus, ip, 0.5 h, read-out: ED50 (mean effective dose permitting inhibition of bruxism by 50%)
# Experimental: 24 male Wistar rats which weighed between 220 and 240 g and which had eaten nothing for approximately 24 hours were used for this test. Each animal receives a first treatment (reference compound, compound of the invention, or solvent) at a given time before a second treatment (methyl phenidate or physiological serum), which is effected by the i.p. route at the time designated T0. Among the animals used for a test, […] serve as control and receive the following treatments: serum+serum i.p.: 1 animal (serum control); solvent+ 40 mg/kg i.p. methyl phenidate: 2 animals (40 mg/kg i.p. methyl phenidate control); and solvent+0.16, 0.63, 2.5 or 10 mg/kg i.p. of methyl phenidate: 1 animal (0.16, 0.63, 2.5 or 10 mg/kg i.p. methyl phenidate controls).
# The test products were administered at given times before the injection of 40 mg/kg i.p. of methyl phenidate at T0. Each animal is observed for a period of 10 seconds. Observations of behaviour were carried out 30 minutes after the treatment with methyl phenidate. A total of 10 observation periods is carried out for each rat at time T30 min. During these observations, the presence (1) or absence (0) of stereotypy is noted.
row,SMILES,ED50 [mg/kg]
1,"CN(C)CCCN1c2ccccc2Sc2ccc(Cl)cc21 [chlorpromazine, reference compound]",1.4

# Same assay, conditions: Rattus norvegicus, ip, 0.5 h; rats; i.p.; given before 40 mg/kg i.p. methyl phenidate; observed 30 min after methyl phenidate; read-out: ED50 (mean effective dose permitting inhibition of bruxism by 50%)
row,SMILES,ED50 [mg/kg]
1,"c1ccc2c(c1)CC2CN1CCN(c2nsc3ccccc23)CC1 (racemic) [Example 4, (R,S)-3-{1-[(benzocyclobutan-1-yl)methyl]piperazin-4-yl}-1,2-benzisothiazole]",10
2,"COc1cc2c(cc1OC)C(CN1CCN(c3noc4ccccc34)CC1)C2 (racemic) [Example 19, (R,S)-3-{1-[(4,5-dimethoxybenzocyclobutan-1-yl)-methyl]piperazin-4-yl}-1,2-benzisoxazole]",1.25
3,"Fc1ccc2c(N3CCN(CC4CCc5ccccc54)CC3)noc2c1 (racemic) [Example 18, (R,S)-3-{1-[(indan-1-yl)methyl]piperazin-4-yl}-6-fluoro-1,2-benzisoxazole]",10
4,"c1ccc2c(c1)CC2CN1CCN(c2noc3ccccc23)CC1 (racemic) [Example 6, (R,S)-3-{1-[(benzocyclobutan-1-yl)methyl]piperazin-4-yl}-1,2-benzisoxazole]",1.25
5,"Fc1ccc2c(N3CCN(CC4Cc5ccccc54)CC3)noc2c1 (racemic) [Example 1, (R,S)-3-{1-[(benzocyclobutan-1-yl)methyl]piperazin-4-yl}-6-fluoro-1,2-benzisoxazole]",0.31
6,"COc1cc2c(cc1OC)C(CN1CCN(c3noc4cc(F)ccc34)CC1)C2 (racemic) [Example 17, (R,S)-3-{1-[(4,5-dimethoxybenzocyclobutan-1-yl)methyl]-piperazin-4-yl}-6-fluoro-1,2-benzisoxazole]",2.5
